Source: patent US12258424B2, “Polypeptides and compositions comprising the same” (priority 2020, dated 2025)
Residues, ends and D or L forms follow the SMILES beside them.

Key:
[1] = test system: Jurkat T cells co-cultured with DU-145 cancer cells; assay: Jurkat T cell proliferation in co-culture with DU-145 cells (CellTiter-Glo); type: cell-based, human; settings: peptide 5 μM, 24 hours
Procedure: (§1) Proliferation and Apoptosis Assays. […] Briefly, 3×10^4 Jurkat T cells were cultured alone or co-cultured with 1.5×10^5 DU-145 cancer cells in a 24-well plate for the proliferation assay. For the apoptosis assay, 6×10^4 Jurkat T cells were cultured alone or co-cultured with 3×10^5 DU-145 cancer cells in a 6-well plate. After incubation with the anti-PD-L1 peptides (5 μM) or anti-PD-L1 antibody (1 μM) for 24 hours, Jurkat T cells were harvested from the supernatant. Proliferation of Jurkat cells was determined using the CellTiter-Glo luminescent cell viability assay (Promega, WI), and apoptosis of the cells were determined using the Dead Cell Apoptosis Kit with Annexin V Alexa Fluor® 488 and Propidium Iodide (Thermo-Fisher Scientific, Pittsburgh, PA) as we described before^21.

[2] = test system: Jurkat T cells co-cultured with DU-145 cancer cells; assay: Jurkat T cell apoptosis in co-culture with DU-145 cells (Annexin V/PI); type: cell-based, human; settings: co-culture with DU-145 (15.1% untreated); peptide 5 μM or antibody 1 μM, 24 hours
Procedure: as §1

hPD-L1 = hPD-L1 (Homo sapiens, UniProt Q9NZQ7); assay: Blockade of the PD-1/PD-L1 interaction, plate coated with human PD-L1 protein; type: binding; set-up: PD-L1 protein (G&P Biosciences, human PD-L1 ECD, cat #FCL0784B); purchased G&P Biosciences FCL0784B (PD-L1)
Chain of hPD-L1 (Q9NZQ7 19-238 limits assumed): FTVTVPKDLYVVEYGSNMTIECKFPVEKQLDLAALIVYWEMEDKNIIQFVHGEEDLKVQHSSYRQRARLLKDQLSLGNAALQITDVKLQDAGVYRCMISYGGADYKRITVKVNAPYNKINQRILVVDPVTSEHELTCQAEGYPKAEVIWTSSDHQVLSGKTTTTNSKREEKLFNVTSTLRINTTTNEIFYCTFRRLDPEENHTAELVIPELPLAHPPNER
Procedure: Ninety-six-well plates were coated with 100 ng of PD-L1 protein (G&P Biosciences, human PD-L1 ECD, cat #FCL0784B. mouse PD-L1, cat #FCL3502B) and later blocked with 2% BSA for 2 hours at room temperature. Various concentrations of peptides were loaded into the wells and incubated for 1 hour at room temperature. […] Streptavidin-HRP (R & D systems) and chromogenic substrate were added into the wells. OD450 was then recorded and referenced to OD540.

[3] = target: T1, recombinant human PD-L1 ECD protein (Homo sapiens, UniProt Q9NZQ7); assay: SPR binding kinetics and affinity to immobilized human PD-L1; settings: read-out: Ka
T1 construct: against the recombinant human PD-L1 ECD protein were evaluated using SPR; purchased G&P Biosciences FCL0784B
T1 sequence (Q9NZQ7 19-238 limits assumed): as above
Procedure: In such aspects, the equilibrium dissociate constant KD value against recombinant human PD-L1 can be determined according to an KD to PD-L1 SPR Assay. The KD to PD-L1 SPR Assay can include the use of Surface Plasmon Resonance (SPR), such as the B14500, Biosensing Instrument, and can include the following procedures. The PD-L1 protein can be diluted to 10 μg/mL with sodium acetate buffer (pH 5.0, GE Healthcare, PA) and covalently coated onto a CM5 sensor chip (CM Dextran Sensor Chip, Biosensing Instrument) using the standard Amine Coupling Kit (GE Healthcare, PA). Approximately 6500 RU of PD-L1 protein are immobilized onto the chip. A second channel is used as a reference. HBS-EP+ buffer (GE Healthcare) can be employed at a flow rate of 60 μL/min. A series of concentrations of each peptide (15, 30, 60, 125, 250, 500, 1000, 5000 and 10,000 nM) is prepared in HBS-EP+ running buffer to obtain the equilibrium dissociation constant (KD) values of the peptides. The CM5 sensor chip can be regenerated with 10 mM NaOH for 20 s. The results can be analyzed using the software of Bi data analysis software.
Evaluation of Binding Kinetics and Affinity By Surface Plasmon Resonance (SPR). Binding affinities of the PD-L1 specific peptides for human PD-L1 protein were determined by SPR (B14500, Biosensing Instrument). PD-L1 protein was diluted to 10 μg/mL with sodium acetate buffer (pH 5.0, GE Healthcare, PA) and covalently coated onto a CM5 sensor chip (CM Dextran Sensor Chip, Biosensing Instrument) using the standard Amine Coupling Kit (GE Healthcare, PA). Approximately 6500 RU of PD-L1 protein were immobilized onto the chip. A second channel was used as a reference. HBS-EP+ buffer (GE Healthcare) was employed at a flow rate of 60 μL/min. A series of concentrations of each peptide (15, 30, 60, 125, 250, 500, 1000, 5000 and 10,000 nM) were prepared in HBS-EP+ running buffer to obtain the equilibrium dissociation constant (KD) values of the peptides. The CM5 sensor chip was regenerated with 10 mM NaOH for 20 seconds. The results were analyzed using the software of Bi data analysis software. Binding affinities of the anti-PD-L1 peptides to BSA was also assessed following the procedure for human PD-L1.

[4] = test system: CT26 colorectal tumor-bearing mouse model; assay: Anti-tumor activity in CT26 tumor-bearing Balb/C mice; type: in vivo
Source text: (§2) Animal Study. The animal protocol was approved by the University of Missouri-Kansas City, Institutional Animal Care and Use Committee (IACUC). Five-week old male and female Balb/c mice were purchased from Charles Rivers Laboratories (Wilmington, Mass.) and housed in a temperature and humidity controlled room on a 12-hour light-dark cycle. Approximately 5×10^5 CT26 cells were subcutaneously injected into the right flank. The mice were randomly divided into five different groups (10 mice/group, 50% female, 50% male). The mice were intraperitoneally injected with 2 mg/kg peptide daily when the tumor size reached 50-100 mm^3. The anti-mouse PD-L1 antibody (10F.9G2, BioXcell) was administrated as a positive control at a dose of 10 mg/kg every two days. The tumor size was assessed with a caliper and calculated with the formula 0.5×length×width^2. ELISA kits of PD-L1 (Cat #DY1019-05), IFNγ (Cat #DY485-05), and IL-6 (Cat #DY406-05) were used to measure the expressions of PD-L1, IFNγ, and IL-6, respectively, in tumors as per the company's instructions (R & D Systems, Minneapolis, MN).
The anti-mouse PD-L1 antibody (BioXcell, 10F.9G2) was administered intraperitoneally every other day at 10 mg/kg. […] In general, CLP002 (SEQ ID NO:2) exerted a better tumor inhibitory effect than CLP003 (SEQ ID NO:3), which was similar to the antibody. […] In FIG. 6e the weight of the tumors harvested at day 14 is shown. The results were represented as the mean±SD (n=10). It is noteworthy that the peptides were screened against the human PD-L1 protein, which, in fact, would compromise the anti-tumor activity of the peptides in a mouse model.

[5] = test system: IFNγ, PD-L1 and IL-6 in CT26 tumors; assay: ELISA of IFNγ, PD-L1 and IL-6 in harvested CT26 tumors; type: in vivo, mouse
Source text: as §2

CC(C)C[C@H](NC(=O)[C@H](CC(N)=O)NC(=O)[C@H](Cc1c[nH]c2ccccc12)NC(=O)[C@@H](NC(=O)[C@H](Cc1ccc(O)cc1)NC(=O)[C@H](Cc1ccc(O)cc1)NC(=O)[C@H](CO)NC(=O)[C@H](CCCNC(=N)N)NC(=O)[C@H](Cc1c[nH]cn1)NC(=O)[C@@H](N)Cc1c[nH]c2ccccc12)[C@@H](C)O)C(=O)N[C@@H](CC(N)=O)C(=O)N[C@H](C(=O)O)[C@@H](C)O [CLP002] (H-WHRSYYTWNLNT-OH; N-terminus and C-terminus assumed)
Effect on Jurkat T cell proliferation [1]: restored Jurkat T cell proliferation | Apoptosis of Jurkat cells [2]: 10.2% | Blocking Efficiency (%) (hPD-L1; human PD-L1 protein): 85% | Blocking of the human PD-1/PD-L1 interaction (in words) (hPD-L1; peptides at 10 μM, FIG. 2c): highest blocking efficiency | IC50 (hPD-L1; plate coated with human PD-L1 protein): 2170 nM | kon [3]: 4520 M⁻¹ s⁻¹ | Tumor growth ([4]; peptides 2 mg/kg i.p. daily, antibody 10 mg/kg i.p. every other day): effectively suppressed tumor growth | Tumor weights at day 14 ([4]; versus saline group): significantly smaller than the saline group | IL-6 expression in tumor tissues [5]: decreased expression of IL-6
